Test: recombinant barcode read abundance after kanamycin selection (control-corrected) (log10(CPM+1)); higher = more efficient recombination; sequences stand for … in AGTGCAGAGAAAATCGGCCAGTTTTCTCTGCCTGCAGTCCGCATGCCGT…AGATTTATGCAGCGGACTGCCTTTCTCCCAAAGTGATAAACCGGACAGTATCATGGACCGGTTTTCCCGGTAATCCGTATTTGCAAGGTTGGTTTCACT; site = the 11-nt target
Outline: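 Targets were screened in pooled form in E. coli against IS621 bridge RNA target-binding loops. Recombination efficiency is based on barcode counts at recombinant junctions in counts per million, averaged and corrected for the control. Numbers are shown as log10(CPM+1), with duplicate plates on chloramphenicol/ampicillin LB agar (control) or chloramphenicol/ampicillin/kanamycin with 0.1 mM IPTG.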
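Further: IS621 recombinase and bridge RNA in Escherichia coli cells.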

**Q.** With “GGGGACCCTTGGGTTCTAACCTGTTGCGC (site GGGGACCCTTC)” as the sequence, how does the “recombinant barcode read abundance (log10)” value read?
**A.** 0.283

**Q.** Which “recombinant barcode read abundance (log10)” value does the source give for “GGGGAGCCTTGGGTTCTAACCTGTTGCGG (site GGGGAGCCTCC)” here?
**A.** 2.38

**Q.** Which “recombinant barcode read abundance (log10)” value does the source give for “GGGGAGCCTTGGGTTCTAACCTGTTGCGG (site GGGGATCCTTC)” here?
**A.** 0.335

**Q.** For “GGGGCACCTTGGGTTCTAACCTGTTGCGT (site GGGGCACCTAA)”, which “recombinant barcode read abundance (log10)” value is on record?
**A.** 1.16

**Q.** With “GGGGCACCTTGGGTTCTAACCTGTTGCGT (site GGGGCACCTAC)” as the sequence, how does the “recombinant barcode read abundance (log10)” value read?
**A.** 3.72

**Q.** For “GGGGCACCTTGGGTTCTAACCTGTTGCGT (site GGGGCACCTAG)”, which “recombinant barcode read abundance (log10)” value is on record?
**A.** 0.492

**Q.** For “GGGGCACCTTGGGTTCTAACCTGTTGCGT (site GGGGCACCTAT)”, which “recombinant barcode read abundance (log10)” value is on record?
**A.** 2.61

**Q.** With “GGGGCATCTTGGGTTCTAACCTGTTGCCT (site GGGACATCTAG)” as the sequence, how does the “recombinant barcode read abundance (log10)” value read?
**A.** 0.105

**Q.** For “GGGGCATCTTGGGTTCTAACCTGTTGCCT (site GGGGCATCTAG)”, which “recombinant barcode read abundance (log10)” value is on record?
**A.** 0.0863

**Q.** Which “recombinant barcode read abundance (log10)” value does the source give for “GGGGCATCTTGGGTTCTAACCTGTTGCTT (site GGGGCATCTAA)” here?
**A.** 0.95

**Q.** For “GGGGCATCTTGGGTTCTAACCTGTTGCTT (site GGGGCCTCTAA)”, which “recombinant barcode read abundance (log10)” value is on record?
**A.** 0.0583

**Q.** With “GGGGCATCTTGGGTTCTAACCTGTTGCTT (site GGGGCGTCTAA)” as the sequence, how does the “recombinant barcode read abundance (log10)” value read?
**A.** 0.0873

**Q.** With “GGGGCATCTTGGGTTCTAACCTGTTGCTT (site GGGGCTTCTAA)” as the sequence, how does the “recombinant barcode read abundance (log10)” value read?
**A.** 0.0362

**Q.** Which “recombinant barcode read abundance (log10)” value does the source give for “GGGGCCTCTTGGGTTCTAACCTGTTGCAG (site GGGGCCTCTCT)” here?
**A.** 3.05

**Q.** With “GGGGCCTCTTGGGTTCTAACCTGTTGCAG (site GGTGCCTCTAT)” as the sequence, how does the “recombinant barcode read abundance (log10)” value read?
**A.** 0.213

**Q.** For “GGGGCGACTTGGGTTCTAACCTGTTGCCT (site GGGGCGACTAG)”, which “recombinant barcode read abundance (log10)” value is on record?
**A.** 0.358

**Q.** With “GGGGCGACTTGGGTTCTAACCTGTTGCCT (site GGGGCGCCTAG)” as the sequence, how does the “recombinant barcode read abundance (log10)” value read?
**A.** 0.0568

**Q.** Which “recombinant barcode read abundance (log10)” value does the source give for “GGGGCGACTTGGGTTCTAACCTGTTGCCT (site GGGGCGGCTAG)” here?
**A.** 0.13

**Q.** For “GGGGCGACTTGGGTTCTAACCTGTTGCCT (site GGGGCGTCTAG)”, which “recombinant barcode read abundance (log10)” value is on record?
**A.** 0.0176

**Q.** For “GGGGCTTCTTGGGTTCTAACCTGTTGCAT (site GGGACTTCTAT)”, which “recombinant barcode read abundance (log10)” value is on record?
**A.** 0.158

**Q.** With “GGGGCTTCTTGGGTTCTAACCTGTTGCAT (site GGGCCTTCTAT)” as the sequence, how does the “recombinant barcode read abundance (log10)” value read?
**A.** 0.0416

**Q.** Which “recombinant barcode read abundance (log10)” value does the source give for “GGGGCTTCTTGGGTTCTAACCTGTTGCAT (site GGGGCTTCTAT)” here?
**A.** 2.07

**Q.** With “GGGGCTTCTTGGGTTCTAACCTGTTGCAT (site GGGTCTTCTAT)” as the sequence, how does the “recombinant barcode read abundance (log10)” value read?
**A.** 0.27

**Q.** With “GGGGTTCCTTGGGTTCTAACCTGTTGCCT (site GGGGTTCCTAA)” as the sequence, how does the “recombinant barcode read abundance (log10)” value read?
**A.** 0.223

**Q.** With “GGGGTTCCTTGGGTTCTAACCTGTTGCCT (site GGGGTTCCTAC)” as the sequence, how does the “recombinant barcode read abundance (log10)” value read?
**A.** 1.56

**Q.** For “GGGGTTCCTTGGGTTCTAACCTGTTGCCT (site GGGGTTCCTAG)”, which “recombinant barcode read abundance (log10)” value is on record?
**A.** 2.3

**Q.** Which “recombinant barcode read abundance (log10)” value does the source give for “GGGGTTCCTTGGGTTCTAACCTGTTGCCT (site GGGGTTCCTAT)” here?
**A.** 1.42

**Q.** For “GGGGTTCCTTGGGTTCTAACCTGTTGCGT (site GGGGTTCCTAA)”, which “recombinant barcode read abundance (log10)” value is on record?
**A.** 0.321

**Q.** Which “recombinant barcode read abundance (log10)” value does the source give for “GGGGTTCCTTGGGTTCTAACCTGTTGCGT (site GGGGTTCCTAC)” here?
**A.** 3.32

**Q.** With “GGGGTTCCTTGGGTTCTAACCTGTTGCGT (site GGGGTTCCTAG)” as the sequence, how does the “recombinant barcode read abundance (log10)” value read?
**A.** 1.35

**Q.** For “GGGGTTCCTTGGGTTCTAACCTGTTGCGT (site GGGGTTCCTAT)”, which “recombinant barcode read abundance (log10)” value is on record?
**A.** 1.85

**Q.** With “GGGGTTCCTTGGGTTCTAACCTGTTGCTT (site GGGGTTCCTAA)” as the sequence, how does the “recombinant barcode read abundance (log10)” value read?
**A.** 1.52

**Q.** For “GGGGTTCCTTGGGTTCTAACCTGTTGCTT (site GGGGTTCCTAC)”, which “recombinant barcode read abundance (log10)” value is on record?
**A.** 1.89

**Q.** With “GGGGTTCCTTGGGTTCTAACCTGTTGCTT (site GGGGTTCCTAG)” as the sequence, how does the “recombinant barcode read abundance (log10)” value read?
**A.** 1.36

**Q.** For “GGGGTTCCTTGGGTTCTAACCTGTTGCTT (site GGGGTTCCTAT)”, which “recombinant barcode read abundance (log10)” value is on record?
**A.** 1.17

**Q.** Which “recombinant barcode read abundance (log10)” value does the source give for “GGGTAATCTTGGGTTCTAACCTGTTGCCT (site GGGTAAACTAG)” here?
**A.** 0.27

**Q.** With “GGGTAATCTTGGGTTCTAACCTGTTGCCT (site GGGTAATCTAG)” as the sequence, how does the “recombinant barcode read abundance (log10)” value read?
**A.** 0.725

**Q.** For “GGGTCCACTTGGGTTCTAACCTGTTGCCT (site GGGTCCACTAA)”, which “recombinant barcode read abundance (log10)” value is on record?
**A.** 0.481

**Q.** For “GGGTCCACTTGGGTTCTAACCTGTTGCCT (site GGGTCCACTAC)”, which “recombinant barcode read abundance (log10)” value is on record?
**A.** 0.287

**Q.** With “GGGTCCACTTGGGTTCTAACCTGTTGCCT (site GGGTCCACTAG)” as the sequence, how does the “recombinant barcode read abundance (log10)” value read?
**A.** 2.5

**Q.** With “GGGTCCACTTGGGTTCTAACCTGTTGCCT (site GGGTCCACTAT)” as the sequence, how does the “recombinant barcode read abundance (log10)” value read?
**A.** 0.358

**Q.** For “GGGTCCACTTGGGTTCTAACCTGTTGCTT (site GGGTCCACTAA)”, which “recombinant barcode read abundance (log10)” value is on record?
**A.** 1.51

**Q.** With “GGGTCCACTTGGGTTCTAACCTGTTGCTT (site GGGTCCACTAC)” as the sequence, how does the “recombinant barcode read abundance (log10)” value read?
**A.** 0.139

Source: the supplement of paper PMC11208160
